We go through 24 molecules from patent US5504071A, “Compounds with a sequence of three radicals, the central one being α- a” (Polifarma S.p.A., priority 1990, dated 1996).

Square brackets hold non-standard residues; d marks the D form. Peptide text beside a SMILES is read from it. * marks the point of attachment. Trp(1-Me) = Cn1cc(C[C@H](N)C(=O)O)c2ccccc21; Tic = O=C(O)[C@@H]1Cc2ccccc2CN1; pGlu = O=C1CC[CH](C(=O)O)N1; Hyp = O=C(O)[CH]1C[CH](O)CN1; Phg = N[CH](C(=O)O)c1ccccc1; ΔPro = O=C(O)[C@@H]1C=CCN1; Pip = O=C(O)[C@@H]1CCCCN1; αMeP = C[C]1(C(=O)O)CCCN1; Cbz = O=C(OCc1ccccc1)*; Aze = O=C(O)[CH]1CCN1; Boc = CC(C)(C)OC(=O)*

Test [1] concerns spontaneously hyper-tensive rats (SHR). Kind of test: pressure tests in awake spontaneously hypertensive rats. The test is classed as in vivo. The source says:
(§1) In the following examples will first of all be given the data necessary for synthesis of the compounds according to the present invention. There will then be given data regarding their pharmacological activity, using methods widely known to be valid. In particular, for the pressure tests, spontaneously hyper-tensive rats were used (SHR from the company Charles River), operated in such a way as to enable pressure to be read even when the animals were awake and free to move. In order to evaluate the analgesic activity, the Hot Plate and Writhing Tests were used. For the anti-inflammatory effect the test of carraginine edema was used. Finally, for immuno-modulating activity the evaluation of the stimulation of growth of human lymphocytes in culture was resorted to, after the addition of specific antigens. The results obtained for each synthesized compound are given at the end of each example.

The test system of test [2] is carraginine edema. The test is described as follows: carraginine edema test (anti-inflammatory effect). The test is classed as in vivo. Particulars: dose not stated.
Excerpt: as §1

Test [3] deals with human lymphocytes in culture. Kind of test: stimulation of growth of human lymphocytes in culture after addition of specific antigens. The class given is cell-based. Particulars: for immune response (immuno-stimulating activity): antigen not stated.
Excerpt: as §1

The nature of test [4]: Hot Plate test (analgesic activity). The class given is in vivo.
Excerpt: as §1
In general terms: In hot-plate and tail-flick tests a longer latency is read as antinociception.

A short description of test [5]: analgesic activity, test not specified (Hot Plate and Writhing Tests). The class given is in vivo. Particulars: test and dose not stated.
Excerpt: as §1
On the technique in general: In writhing tests, fewer writhes than in controls are read as antinociception.

Test [6] in a line: Writhing test (analgesic activity). Particulars: dose not stated. The class given is in vivo.
Excerpt: as §1

For the molecule `COC(=O)C(NC(=O)CNC(=O)C1CCC(=O)N1)c1ccccc1` (stereo not drawn) [compound 22, (L)-Pyr-Gly-(L)-PhgOMe] ([pGlu]-Gly-[Phg]-OMe; configuration not given here), in test [1] (4 mg/Kg i.p.), the anti-hypertensive effect result is reported as “excellent anti-hypertensive activity” and the “reduction of pressure values” is given as 20%. In test [2], the anti-inflammatory effect entry was “very good” and the reduction of edema is on record as 70%. The “immune response (immuno-stimulating activity)” value (shortened to “immune response”) in test [3] was “appears to increase the immune response”.

Regarding `COC(=O)[C@@H]1Cc2c([nH]c3ccccc23)CN1C(=O)[C@H](CC(C)C)NC(=O)[C@@H]1CCC(=O)N1C(=O)OCc1ccccc1` [compound 20, Z-(L)-Pyr-(L)-Leu-(S)-CytOMe], the anti-hypertensive effect entry in test [1] (dose not stated) was “bland anti-hypertensive activity”. Besides, the anti-inflammatory effect result in test [2] is on record as “fair anti-inflammatory activity”.

`COC(=O)[C@@H](NC(=O)[C@H](C)NC(=O)[C@@H]1CCCN1C(=O)OCc1ccccc1)c1ccccc1` [compound 5, Z-(L)-Pro-(L)-Ala-(L)-PhgOMe] (Cbz-Pro-Ala-[Phg]-OMe): in test [1] (8 mg/Kg i.p.), the anti-hypertensive effect entry is “bland anti-hypertensive effect”. Moreover, the “analgesic effect using the Hot Plate test” value in test [4] (dose not stated) was “moderate analgesic effect”.

As for `COC(=O)[C@@H]1Cc2c([nH]c3ccccc23)CN1C(=O)[C@H](CC(C)C)NC(=O)[C@@H]1CCC(=O)N1` [compound 25, (L)-Pyr-(L)-Leu-(S)-CytOMe], the anti-hypertensive effect entry in test [1] (dose not stated) is “bland anti-hypertensive effect”. The analgesic activity entry in test [5] is “weak analgesic activity”.

Consider `COC(=O)[C@H](Cc1c[nH]c2ccccc12)NC(=O)[C@H](CC(C)C)NC(=O)c1ccco1` [compound 8, 2-Fur-(L)-Leu-(L)-TrpOMe], for which the anti-hypertensive effect result in test [1] (4 mg/Kg i.v.) is recorded as “slight anti-hypertensive effect”. Besides, the anti-inflammatory effect result in test [2] was “slight anti-inflammatory effect”. The “immune response” value in test [3] is recorded as “strongly stimulated even with small doses of peptide”.

Consider `COC(=O)C(Cc1c[nH]c2ccccc12)NC(=O)C(CC(C)C)NC(=O)C1CCCN1C.Cl` (stereo not shown) [compound 10, N-Me-(L)-Pro(L)-Leu-(L)-TrpOMe.HCl], for which the anti-hypertensive effect entry in test [1] (2 mg/Kg i.v.) is reported as “excellent anti-hypertensive effect”. In test [5], the analgesic activity result was “low analgesic effect”. In test [3], the “immune response” value is on record as “slightly increased”.

Consider `COC(=O)[C@H](Cc1cn(C)c2ccccc12)NC(=O)[C@H](C)NC(=O)[C@@H]1CCCN1C(=O)OCc1ccccc1` [compound 7, Z-(L)-Pro-(L)-Ala-(1)-Me-(L)-TrpOMe] (Cbz-Pro-Ala-[Trp(1-Me)]-OMe), for which, in test [1] (2 mg/Kg i.v.), the anti-hypertensive effect result is listed as “good anti-hypertensive effect” and the reduction of pressure came to 10%.

On to `COC(=O)[C@H](Cc1c[nH]c2ccccc12)NC(=O)[C@H](CC(C)C)NC(=O)[C@@H]1CCC(=O)N1C(=O)OCc1ccccc1` [compound 19, Z-(L)-Pyr-(L)-Leu-(L)-TrpOMe], for which the anti-hypertensive effect result in test [1] (dose not stated) is given as “slight anti-hypertensive effect”. The anti-inflammatory effect result in test [2] is “fair anti-inflammatory activity”.

Turning to `COC(=O)C(Cc1c[nH]c2ccccc12)NC(=O)C(CC(C)C)NC(=O)C1CCN1C(=O)OCc1ccccc1` [compound 17, Z-(S)-Aze-(L)-Leu-(L)-TrpOMe] (Cbz-[Aze]-Leu-Trp-OMe; configuration not given here), the anti-hypertensive effect entry in test [1] (dose not stated) is “slight anti-hypertensive effect”. Also, in test [2], the anti-inflammatory effect result is reported as “bland anti-inflammatory activity”.

On to `COC[C@H](Cc1ccccc1)NC(=O)CNC(=O)[C@@H]1CCC(=O)N1` [compound 23, (L)-Pyr-Gly-(L)-Pme], for which, in test [1] (8 mg/Kg i.p.), the anti-hypertensive effect entry was “good anti-hypertensive activity”. Besides, the “reduction of contorsions during the Writhing test” value in test [6] is given as 80%. Also, the analgesic activity result in test [5] is “excellent analgesic effect”. Moreover, in test [3], the “immune response” value is reported as “good immuno-stimulating effect”.

For `C[C@H](NC(=O)[C@@H]1CCCN1C(=O)OCc1ccccc1)C(=O)NCCc1c[nH]c2ccccc12` [compound 2, Z-(L)-Pro-(L)-Ala-TrpH], the anti-hypertensive effect result in test [1] (dose not stated) is listed as “comparable to that of compound 1”. In addition, the “immune response” value in test [3] is recorded as “increased, but to a lesser extent than in the previous compound”.

`COC(=O)C(Cc1c[nH]c2ccccc12)NC(=O)C(CC(C)C)NC(=O)C1CC(O)CN1C(=O)OCc1ccccc1` (stereo not drawn) [compound 16, Z-(L)-Hyp-(L)-Leu-(L)-TrpOMe] (Cbz-[Hyp]-Leu-Trp-OMe; configuration not given here): the anti-hypertensive effect result in test [1] (dose not stated) was “bland anti-hypertensive action”. Further, the analgesic activity result in test [5] was “modest analgesic effect”.

Consider `CCOC(=O)[C@@H]1Cc2c([nH]c3ccccc23)CN1C(=O)[C@H](C)NC(=O)[C@@H]1CCCN1C(=O)OCc1ccccc1` [compound 1, Z-(L)-Pro-(L)-Ala-(S)-CytOEt], for which, in test [1] (4 mg/Kg i.p.), the anti-hypertensive effect entry is given as “good anti-hypertensive effect” and the “duration of the anti-hypertensive effect” value is “maintained for a number of hours”. In addition, the “pain killing effect under the Hot Plate test” value in test [4] (4 mg/Kg i.p.) is listed as “slight pain killing effect”. Also, the “response of lymphocytes stimulated by phytohemoagglutinine (PHA)” value in test [3] (PHA stimulation) is on record as “increases the response of lymphocytes”.

For `COC(=O)[C@H](Cc1ccc(OC)cc1)NC(=O)[C@H](C)NC(=O)[C@@H]1CCCN1C(=O)OCc1ccccc1` [compound 4, Z-(L)-Pro-(L)-Ala-(L)-OmtOMe] (Cbz-Pro-Ala-Tyr(Me)-OMe), the anti-hypertensive effect entry in test [1] (8 mg/Kg i.v.) is “bland anti-hypertensive effect”. Also, the “immune response” value in test [3] is on record as “slightly increased”.

For `COC(=O)[C@@H]1Cc2ccccc2CN1C(=O)[C@H](CC(C)C)NC(=O)[C@@H]1CCC(=O)N1C(=O)OCc1ccccc1` [compound 21, Z-CL)-Pyr-(L)-Leu-(S)-CypOMe], the anti-hypertensive effect result in test [1] (dose not stated) is on record as “slight anti-hypertensive activity”. In test [3], the “immune response” value is “good immuno-stimulating activity”.

As for `COC(=O)[C@H](Cc1c[nH]c2ccccc12)NC(=O)[C@H](CC(C)C)NC(=O)[C@@H]1C=CCN1C(=O)OC(C)(C)C` [compound 13, Boc-.gradient.^3.4 -(L)-Pro-(L)-Leu-(L)-TrpOMe] (Boc-[ΔPro]-Leu-Trp-OMe), the anti-hypertensive effect entry in test [1] (dose not stated) is “slightly anti-hypertensive”. For the same molecule, the “immune response” value in test [3] is listed as “slightly increases the immune response”.

For the molecule `COC(=O)[C@H](Cc1c[nH]c2ccccc12)NC(=O)[C@H](CC(C)C)NC(=O)[C@@H]1CCCCN1C(=O)OCc1ccccc1` [compound 15, Z-(L)-Pip-(L)-Leu-(L)-TrpOMe] (Cbz-[Pip]-Leu-Trp-OMe), in test [1] (2 mg/Kg i.v.), the anti-hypertensive effect entry is on record as “good anti-hypertensive effect” and the reduction of pressure entry was “up to 30%”. Besides, the anti-inflammatory effect result in test [2] is recorded as “consistent”. The “immune response” value in test [3] is reported as “slight increase in immune response”.

In the case of `COC(=O)[C@H](Cc1c[nH]c2ccccc12)NC(=O)[C@H](CC(C)C)NC(=O)c1ccc[nH]1` [compound 9, 2-Pyrrolyl-(L)-Leu-(L)-TrpOMe], the anti-hypertensive effect entry in test [1] (dose not stated) is given as “slight effect on pressure”. Also, in test [2], the anti-inflammatory effect entry was “bland reduction of inflammatory responses”.

With `C[C@H](NC(=O)[C@@H]1CCCN1C(=O)OCc1ccccc1)C(=O)N1CCc2c([nH]c3ccccc23)C1` [compound 3, Z-(L)-Pro-(L)-Ala-CytH], the anti-hypertensive effect entry in test [1] (8 mg/Kg i.p.) is listed as “bland anti-hypertensive effect”.

As to `COC(=O)[C@H](Cc1c[nH]c2ccccc12)NC(=O)[C@H](CC(C)C)NC(=O)[C@@H]1CCCO1` [compound 18, (S)-Tfc-(L)-Leu-(L)-TrpOMe], in test [1] (dose not stated), the anti-hypertensive effect entry was “bland anti-hypertensive effect”. For the same molecule, the “immune response” value in test [3] is listed as “stimulates the immune response in a moderate manner”.

In the case of `COC(=O)C(Cc1c[nH]c2ccccc12)NC(=O)C(CC(C)C)NC(=O)C1(C)CCCN1C(=O)OC(C)(C)C` (stereo not drawn) [compound 12, Boc-(L)-Mep-(L)-Leu-(L)TrpOMe] (Boc-[αMeP]-Leu-Trp-OMe; configuration not given here), the anti-hypertensive effect entry in test [1] (dose not stated) is “bland anti-hypertensive effect”. Besides, the anti-inflammatory effect entry in test [2] is recorded as “reduction of the inflammatory response”.

For `COC(=O)[C@@H]1Cc2ccccc2CN1C(=O)CNC(=O)[C@@H]1CCC(=O)N1` [compound 24, (L)-Pyr-Gly-(L)-CypOMe] ([pGlu]-Gly-[Tic]-OMe), the anti-hypertensive effect result in test [1] (dose not stated) was “bland anti-hypertensive action”. Further, the anti-inflammatory effect entry in test [2] is “moderate anti-inflammatory action”.

Turning to `COC(=O)[C@@H]1Cc2ccccc2CN1C(=O)[C@H](C)NC(=O)[C@@H]1CCCN1C(=O)OCc1ccccc1` [compound 11, Z-(L)-Pro-(L)-Ala-CypOMe] (Cbz-Pro-Ala-[Tic]-OMe), the anti-hypertensive effect entry in test [1] (dose not stated) is given as “slight anti-hypertensive effect”. For the same molecule, the anti-inflammatory effect entry in test [2] is “moderate anti-inflammatory effect”.

In the case of `COC(=O)[C@H](Cc1c[nH]c2ccccc12)NC(=O)[C@H](CC(C)C)NC(=O)[C@@H]1Cc2ccccc2N1C(=O)OCc1ccccc1` [compound 14, Z-(S)-Dhi-(L)-Leu-(L)-TrpOMe], in test [1] (dose not stated), the anti-hypertensive effect entry is given as “bland reduction of pressure”. In test [5], the analgesic activity entry was “moderate analgesic effect”.
